From publication PMC8513058, “Synthesis and Evaluation of Novel 1,2,6-Thiadiazinone Kinase Inhibitors as Potent Inhibitors of Solid Tumors” (Molecules, 2021)
Where two headings read alike, the source gives them in different places. One block for each molecule: values may come before it.

Columns and labels:
U-CH2 cells = assay: Cancer cell line viability screen (alamarBlue), UCH2; details: UCH2, 72 h, read-out: IC50 UCH2
Protocol: (§1) This included pancreatic, bladder, prostate, breast, chordoma, and lung cancer cell lines while a skin fibroblast cell line was used as a toxicity control [33, 34, 35, 36].
(§2) Cells were seeded in 384-well plates and were treated with test compound in quadruplicate 24 h after plating. Cell viability was assessed at 72 h using alamarBlue (ThermoFisher, Waltham, MA, USA). […] IC50 values were determined by nonlinear regression using GraphPad PrismTM software (GraphPad Software Inc., San Diego, CA, US).

A-431 cells [1] = assay: Cancer cell line viability screen (alamarBlue), A431; details: Homo sapiens, A-431, 72 h, read-out: IC50 A431
Protocol: as §1, §2

U-CH1 cells = assay: Cancer cell line viability screen (alamarBlue), UCH1; details: UCH1, 72 h, read-out: IC50 UCH1
Protocol: as §1, §2

[2] = Chemical stability of thiadiazinones under aqueous, nucleophile, oxidizing and reducing conditions; type: physicochemical; details: tested similarly to 3,5-bis(phenylamino)-4H-1,2,6-thiadiazin-4-one: neutral, acidic, slightly basic aqueous, amine or thiol nucleophiles
From the text: It is important to note that the stability of dianilinothiadiazinones in biological systems has previously been assessed.

[3] = test system: kinases in SUM159 cell lysates; assay: MIBS kinome profiling (MIB-MS competitive displacement); type: binding; details: 1 μM compound vs DMSO, SUM159 lysate
Protocol: We then assessed the kinome profile of thiadiazinones 16, 17, and 26 all at 1 μM using a multiplexed kinase inhibitor bead set and quantitative mass spectrometry for detection of kinase peptides (MIB-MS). The MIB-MS proteomics was able to detect between 350 and 400 kinases in the cell lysates and competitive displacement of specific kinases from the beads was used to determine the kinome profile of the thiadiazinone kinase inhibitors.
Previously described. Briefly, multiplexed inhibitor beads (MIBS) affinity chromatography/MS analysis: SUM159 cells were cultured in a 50:50 mixture of DMEM and Nutrient Mixture F-12 medium (Gibco) supplemented with 5% fetal bovine serum, 1% anti/anti, […] insulin, and […] hydrocortisone. Cells were maintained at 37 °C in a humidified 5% CO2 atmosphere. SUM159 cells were grown to 80% confluency, washed twice with PBS, and harvested by scraping cells in lysis buffer [50 mM HEPES, pH 7.5, 150 mM NaCl, 0.5% Triton X-100, 1 mM EDTA, 1 mM EGTA, 10 mM NaF, 2.5 mM Na3VO4, complete protease inhibitor cocktail (Roche, Basel, Switzerland), phosphatase inhibitor cocktail 2, and 3 (Sigma, St. Louis, MO, USA)]. Lysates were sonicated then clarified by centrifugation at 14000 V g for 15 min at 4 °C. Lysate was then filtered through a […] syringe filter and frozen at −80 °C until use. Protein concentration was quantified using a Bradford assay the day of the experiment. DMSO or the indicated concentration of 16, 17, and 26 were added to lysate containing 4 mg of total protein. Lysates were vortexed briefly then incubated for 30 min on ice. Kinases were affinity purified as previously described. Briefly, lysates were diluted to 1.33 mg mL^−1 with lysis buffer then NaCl concentration brought to 1 M.
Diluted lysates were passed over a mixture of […] of settled beads of each of the following inhibitors conjugated to ECH Sepharose beads: Purvalanol B, PP58, VI-16832, UNC21474A, UNC8088A, and […] of settled beads conjugated to CTx-0294885 and VI-16832 [69]. The kinase inhibitor–bead conjugates were previously equilibrated in high-salt buffer (50 mM HEPES pH 7.5, 1M NaCl, 0.5% Triton X-100, 1 mM EDTA, and 1 mM EGTA). MIBs columns were sequentially washed with high-salt buffer, low-salt buffer (50 mm HEPES pH 7.5, 150 mM NaCl, 0.5% Triton X-100, 1 mM EDTA, and 1 mM EGTA), and SDS buffer (50 mm HEPES pH 7.5, 150 mm NaCl, 0.5% Triton X-100, 1 mm EDTA, 1 mm EGTA, and 0.1% SDS). Proteins were eluted by boiling samples in elution buffer (100 mM Tris·HCl pH 6.8, 0.5% SDS, and 1% β-mercaptoethanol) for 15 min twice. Dithiothreitol (DTT) was added to a final concentration of 5 mm and samples were incubated at 60 °C for 25 min. Samples were then cooled to room temperature on ice and alkylated by adding iodoacetamide to a final concentration of 20 mm for 30 min in the dark at room temperature. Samples were then concentrated in 10K Amicon Ultra centrifugal concentrators (Millipore, Burlington, MA, USA) followed by methanol and chloroform precipitation of proteins. The final protein pellets were re-suspended in 50 mM HEPES pH 8.0 and incubated with trypsin at 37 °C overnight. Residual detergent was removed by three sequential ethyl acetate extractions then desalted using Pierce C18 spin columns (Thermo Scientific, Waltham, MA, USA) according to the manufacturer’s protocol.

WS-1 cell line [4] = assay: Toxicity control viability screen (alamarBlue), WS-1 skin fibroblasts; details: WS1, 72 h, read-out: IC50 WS-1
Protocol: as §1
(§3) DU145 and MCF-7 cells were cultured in MEM medium supplemented with 10% FBS and 1% penicillin/streptomycin. […] Cells were seeded in 384-well plates and were treated with test compound in quadruplicate 24 h after plating. Cell viability was assessed at 72 h using alamarBlue (ThermoFisher, Waltham, MA, USA). […] IC50 values were determined by nonlinear regression using GraphPad PrismTM software (GraphPad Software Inc., San Diego, CA, US).

DU145 cells [5] = assay: Cancer cell line viability screen (alamarBlue), DU145; details: Homo sapiens, DU-145, 72 h, read-out: IC50 DU145
Protocol: as §1, §3

MCF-7 cells [6] = assay: Cancer cell line viability screen (alamarBlue), MCF7; details: Homo sapiens, MCF7, 72 h, read-out: IC50 MCF7
Protocol: as §1, §3

5637 cells [7] = assay: Cancer cell line viability screen (alamarBlue), 5637
Protocol: as §1, §3

PANC-1 cells [8] = assay: Cancer cell line viability screen (alamarBlue), PANC1; details: Homo sapiens, PANC-1, 72 h, read-out: IC50 PANC1
Protocol: as §1, §3

DU145 cells [9] = test system: DU145 cells; set-up: method as in PMID 28373427; details: positive control; cited from earlier work
A-431 cells [10] = details: read-out: IC50 A431, positive control; cited from earlier work
WS-1 cell line [11] = details: read-out: IC50 WS-1, positive control; cited from earlier work
MCF-7 cells [12] = details: read-out: IC50 MCF7, positive control; cited from earlier work
PANC-1 cells [13] = test system: PANC-1 cells; set-up: method as in PMID 22487525; details: positive control; read-out: IC50 PANC1, positive control; cited from earlier work
5637 cells [14] = test system: 5637 cells; set-up: method as in PMID 23887605; details: positive control; cited from earlier work

IC50 (U-CH2 cells): > 100 µM
IC50 (A-431 cells [1]): > 100 µM
IC50 (U-CH1 cells): 46 µM
stability [2]: the same results
IC50 (DU145 cells [5]): 41 µM
IC50 (MCF-7 cells [6]): 18 µM
IC50 (5637 cells [7]; 72 h, read-out: IC50 5637): 1.6 µM
melting point: 326 to 327 °C
IC50 (PANC-1 cells [8]): 33 µM
SMILES: O=c1c(Nc2cccc(O)c2)nsnc1-c1ccnc2[nH]ccc12 [Compound 16, 3-[(3-Hydroxyphenyl)amino]-5-(1H-pyrrolo[2,3-b]pyridin-4-yl)-4H-1,2,6-thiadiazin-4-one]
kinases competitively displaced from the beads (hits) [3]: weak interactions on MAP4K5, MAP4K3, PRKCD, and PKN1 just below the threshold
kinome profile ([3]; 350-400 kinases detected): narrow spectrum kinome profile
IC50 (WS-1 cell line [4]): > 100 µM
increase in potency on the bladder cancer cell line (5637 cells [7]; 16 relative to methoxy analogue 15): 10 fold

SMILES: CC(=O)O[C@@]12CO[C@@H]1C[C@H](O)[C@@]1(C)C(=O)[C@H](O)C3=C(C)[C@@H](OC(=O)[C@H](O)[C@@H](NC(=O)OC(C)(C)C)c4ccccc4)C[C@@](O)([C@@H](OC(=O)c4ccccc4)[C@H]21)C3(C)C [docetaxel]
IC50 (DU145 cells [9]): 0.005 µM

SMILES: CS(=O)(=O)CCNCc1ccc(-c2ccc3ncnc(Nc4ccc(OCc5cccc(F)c5)c(Cl)c4)c3c2)o1 [lapatinib]
IC50 (A-431 cells [10]): 0.1 µM
IC50 (WS-1 cell line [11]): 13 µM
IC50 (MCF-7 cells [12]): 6.3 µM

SMILES: Cc1[nH]c2ccccc2c1CCNCc1ccc(/C=C/C(=O)NO)cc1 [panobinostat]
IC50 (PANC-1 cells [13]): 1 µM

SMILES: Cc1ccc(Nc2nccc(N(C)c3ccc4c(C)n(C)nc4c3)n2)cc1S(N)(=O)=O [pazopanib]
IC50 (5637 cells [14]): 15 µM
